pIC50: −log10 of the molar value.
Legend:
caALK4 = biological target: T1, caALK4 (Homo sapiens, UniProt P36896); assay: Luciferase reporter assay constitutively active ALK4; conditions: read-out: Cell Based Assay caALK4 IC50
T1 sequence (P36896 1-505 T206D): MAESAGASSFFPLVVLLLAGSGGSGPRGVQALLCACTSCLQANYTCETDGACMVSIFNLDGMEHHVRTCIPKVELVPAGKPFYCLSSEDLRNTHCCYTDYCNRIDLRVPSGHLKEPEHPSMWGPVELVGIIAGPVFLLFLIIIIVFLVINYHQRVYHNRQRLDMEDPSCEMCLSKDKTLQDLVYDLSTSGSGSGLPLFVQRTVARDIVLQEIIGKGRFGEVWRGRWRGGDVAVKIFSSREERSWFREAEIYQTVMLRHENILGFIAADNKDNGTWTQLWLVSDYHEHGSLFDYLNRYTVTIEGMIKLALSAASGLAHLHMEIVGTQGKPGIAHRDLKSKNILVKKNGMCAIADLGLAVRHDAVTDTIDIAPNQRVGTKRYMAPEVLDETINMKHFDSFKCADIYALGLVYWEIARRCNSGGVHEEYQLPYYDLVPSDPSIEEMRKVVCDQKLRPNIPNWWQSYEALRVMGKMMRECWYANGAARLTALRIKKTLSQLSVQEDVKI
Text: C2Cl2 […] cells stably transfected with BMP responsive element from the Id promoter fused to luciferase reporter gene (BRE-Luc) were generously provided by Dr. Peter ten Dijke (Leiden University Medical Center, NL) following the methods described by Zilberberg et al., BMC cell biology 2007, 8, 41-50. Human embryonic kidney 293T cells stably transfected with the TGF-β responsive element from the PAI-1 promoter fused to luciferase reporter gene (CAGA-Luc) were generously provided by Dr. Howard Weiner (Brigham and Women's Hospital, Boston, Mass.) following the methods described by Oida et al., PloS one 2011, 6, e18365. C2Cl2 Bre-Luc and 293T CAGA-Luc cells were seeded in DMEM supplemented with 2% FBS at 20,000 cells per well in tissue culture treated 96-well plates (Costar® 3610; Corning). The cells were incubated for 1 h (37° C. and 10% CO2) and allowed to settle and attach. Compounds of interest or DMSO were diluted in DMEM and added at final compound concentrations of 1 nM to 10 μM. Cells were then incubated for 30 min. Adenovirus expressing constitutively active BMP and TGF-β type I receptors (Ad.caALK1-5), generously provided by Dr. Akiko Hata (University of to California at San Francisco), were added to achieve a multiplicity of infection (MOI) of 100. Plates were incubated overnight at 37° C. Cell viability was assayed with an MIT (3-(4,5-dimethylthiazol-2-yl)-2,5-diphenyl tetrazolium bromide) colorimetric assay (Promega) per the manufacturer's instructions. Media was discarded, and firefly luciferase activity was measured (Promega) according to manufacturer's protocol. Light output was measured using a Spectramax L luminometer (Molecular Devices) with an integration time of one second per well. Data was normalized to 100% of incremental BRE-Luc activity due to adenoviruses specifying caALK1, 2, or 3, or the incremental CAGA-Luc activity due to adenoviruses specifying caALK4 or 5.

DDR2 = biological target: T2, DDR2 (Homo sapiens, UniProt Q16832); assay: Kinome profiling DDR2; assay type: biochemical; conditions: read-out: Inhibitory activity DDR2; for inhibition at 0.1 µM: 100 nM
T2 sequence (Q16832 22-855): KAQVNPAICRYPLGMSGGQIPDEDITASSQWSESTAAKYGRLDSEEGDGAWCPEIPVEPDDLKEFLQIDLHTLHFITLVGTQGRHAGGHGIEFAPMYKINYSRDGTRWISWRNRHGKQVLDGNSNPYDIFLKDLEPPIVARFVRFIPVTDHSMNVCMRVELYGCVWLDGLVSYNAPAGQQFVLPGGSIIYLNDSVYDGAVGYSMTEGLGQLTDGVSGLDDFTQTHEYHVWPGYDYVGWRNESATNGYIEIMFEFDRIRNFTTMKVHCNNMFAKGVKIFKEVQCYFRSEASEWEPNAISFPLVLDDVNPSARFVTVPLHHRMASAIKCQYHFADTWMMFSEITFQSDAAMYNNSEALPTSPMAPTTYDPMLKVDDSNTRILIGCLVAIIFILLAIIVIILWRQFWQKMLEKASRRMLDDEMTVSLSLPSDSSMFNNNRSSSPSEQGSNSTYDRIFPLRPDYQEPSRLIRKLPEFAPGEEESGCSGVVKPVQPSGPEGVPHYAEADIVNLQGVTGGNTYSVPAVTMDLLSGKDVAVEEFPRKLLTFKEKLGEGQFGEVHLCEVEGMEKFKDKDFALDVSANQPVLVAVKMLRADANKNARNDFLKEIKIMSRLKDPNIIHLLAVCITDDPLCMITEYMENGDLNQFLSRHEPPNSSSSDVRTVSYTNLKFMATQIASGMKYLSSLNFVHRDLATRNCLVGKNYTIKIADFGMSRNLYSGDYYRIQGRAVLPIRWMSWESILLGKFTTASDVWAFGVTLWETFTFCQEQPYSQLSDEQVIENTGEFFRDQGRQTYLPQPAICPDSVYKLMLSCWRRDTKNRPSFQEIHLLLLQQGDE
Protocol: (§1) . The kinome-wide selectivity was determined following the methods previously reported by Mohedas et al., ACS Chem Biol 2013, 8, 1291-1302 and Sanvitale et al., PLoS One 2013, 8, e62721.

CSK = CSK (Homo sapiens, UniProt P41240); assay: Kinome profiling CSK; assay type: biochemical; conditions: read-out: Inhibitory activity CSK; for inhibition at 0.1 µM: 100 nM
CSK, sequence (P41240 whole entry): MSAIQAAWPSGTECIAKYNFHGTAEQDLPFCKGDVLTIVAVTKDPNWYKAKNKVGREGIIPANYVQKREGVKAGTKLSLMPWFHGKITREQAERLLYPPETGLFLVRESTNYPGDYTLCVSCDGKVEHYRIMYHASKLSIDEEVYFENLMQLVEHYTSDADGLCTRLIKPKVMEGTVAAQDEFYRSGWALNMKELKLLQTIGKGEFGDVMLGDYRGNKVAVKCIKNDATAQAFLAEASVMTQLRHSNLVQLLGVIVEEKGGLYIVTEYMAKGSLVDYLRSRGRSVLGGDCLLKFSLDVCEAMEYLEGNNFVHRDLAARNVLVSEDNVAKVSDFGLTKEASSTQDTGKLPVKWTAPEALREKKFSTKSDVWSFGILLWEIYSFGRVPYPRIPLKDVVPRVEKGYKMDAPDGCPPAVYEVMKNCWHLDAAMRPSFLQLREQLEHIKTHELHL
Protocol: as §1

MEK1 = MEK1 (Homo sapiens, UniProt Q02750); assay: Kinome profiling MEK1; assay type: biochemical; conditions: read-out: Inhibitory activity MEK1; for inhibition at 0.1 µM: 100 nM
MEK1, sequence (Q02750 whole entry): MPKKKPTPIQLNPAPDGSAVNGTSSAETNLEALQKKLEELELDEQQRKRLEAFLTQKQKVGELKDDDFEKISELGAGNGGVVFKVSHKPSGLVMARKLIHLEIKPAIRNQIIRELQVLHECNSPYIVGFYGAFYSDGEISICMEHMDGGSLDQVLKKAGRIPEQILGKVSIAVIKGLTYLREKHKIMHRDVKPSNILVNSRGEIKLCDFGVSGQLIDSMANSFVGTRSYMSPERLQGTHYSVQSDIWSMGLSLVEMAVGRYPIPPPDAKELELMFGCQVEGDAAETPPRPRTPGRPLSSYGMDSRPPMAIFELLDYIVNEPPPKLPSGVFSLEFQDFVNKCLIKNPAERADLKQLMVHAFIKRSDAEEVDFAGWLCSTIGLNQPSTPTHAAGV
Protocol: as §1

MKNK1 = MKNK1 (Homo sapiens, UniProt Q9BUB5); assay: Kinome profiling MKNK1; assay type: biochemical; conditions: read-out: Inhibitory activity MKNK1; for inhibition at 0.1 µM: 100 nM
MKNK1, sequence (Q9BUB5 whole entry): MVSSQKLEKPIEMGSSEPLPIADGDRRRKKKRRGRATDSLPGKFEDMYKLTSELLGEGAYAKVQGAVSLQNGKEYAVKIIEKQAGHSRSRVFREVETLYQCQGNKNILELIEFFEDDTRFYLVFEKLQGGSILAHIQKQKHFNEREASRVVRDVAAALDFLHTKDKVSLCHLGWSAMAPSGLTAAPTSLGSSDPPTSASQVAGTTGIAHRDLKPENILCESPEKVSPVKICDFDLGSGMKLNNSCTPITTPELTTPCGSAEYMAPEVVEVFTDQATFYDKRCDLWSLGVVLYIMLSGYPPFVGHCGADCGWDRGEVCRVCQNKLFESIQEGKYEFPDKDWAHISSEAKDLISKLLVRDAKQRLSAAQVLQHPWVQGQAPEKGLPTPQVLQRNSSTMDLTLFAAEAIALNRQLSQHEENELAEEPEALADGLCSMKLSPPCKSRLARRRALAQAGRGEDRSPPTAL
Protocol: as §1

PIM-2 = PIM-2 (Homo sapiens, UniProt Q9P1W9); assay: Kinome profiling PIM-2; assay type: biochemical; conditions: read-out: Inhibitory activity PIM-2; for inhibition at 0.1 µM: 100 nM
PIM-2, sequence (Q9P1W9 whole entry): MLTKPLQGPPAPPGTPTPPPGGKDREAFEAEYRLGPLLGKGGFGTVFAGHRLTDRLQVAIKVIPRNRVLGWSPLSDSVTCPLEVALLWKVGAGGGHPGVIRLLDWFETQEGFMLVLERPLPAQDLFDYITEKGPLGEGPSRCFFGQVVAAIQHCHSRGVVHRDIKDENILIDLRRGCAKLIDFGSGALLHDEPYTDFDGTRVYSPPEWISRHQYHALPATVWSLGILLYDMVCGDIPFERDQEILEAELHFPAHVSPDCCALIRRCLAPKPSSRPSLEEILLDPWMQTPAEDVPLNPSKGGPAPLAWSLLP
Protocol: as §1

TYK2 = TYK2 (Homo sapiens, UniProt P29597); assay: Kinome profiling TYK2; assay type: biochemical; conditions: read-out: Inhibitory activity TYK2; for inhibition at 0.1 µM: 100 nM
TYK2, sequence (P29597 whole entry): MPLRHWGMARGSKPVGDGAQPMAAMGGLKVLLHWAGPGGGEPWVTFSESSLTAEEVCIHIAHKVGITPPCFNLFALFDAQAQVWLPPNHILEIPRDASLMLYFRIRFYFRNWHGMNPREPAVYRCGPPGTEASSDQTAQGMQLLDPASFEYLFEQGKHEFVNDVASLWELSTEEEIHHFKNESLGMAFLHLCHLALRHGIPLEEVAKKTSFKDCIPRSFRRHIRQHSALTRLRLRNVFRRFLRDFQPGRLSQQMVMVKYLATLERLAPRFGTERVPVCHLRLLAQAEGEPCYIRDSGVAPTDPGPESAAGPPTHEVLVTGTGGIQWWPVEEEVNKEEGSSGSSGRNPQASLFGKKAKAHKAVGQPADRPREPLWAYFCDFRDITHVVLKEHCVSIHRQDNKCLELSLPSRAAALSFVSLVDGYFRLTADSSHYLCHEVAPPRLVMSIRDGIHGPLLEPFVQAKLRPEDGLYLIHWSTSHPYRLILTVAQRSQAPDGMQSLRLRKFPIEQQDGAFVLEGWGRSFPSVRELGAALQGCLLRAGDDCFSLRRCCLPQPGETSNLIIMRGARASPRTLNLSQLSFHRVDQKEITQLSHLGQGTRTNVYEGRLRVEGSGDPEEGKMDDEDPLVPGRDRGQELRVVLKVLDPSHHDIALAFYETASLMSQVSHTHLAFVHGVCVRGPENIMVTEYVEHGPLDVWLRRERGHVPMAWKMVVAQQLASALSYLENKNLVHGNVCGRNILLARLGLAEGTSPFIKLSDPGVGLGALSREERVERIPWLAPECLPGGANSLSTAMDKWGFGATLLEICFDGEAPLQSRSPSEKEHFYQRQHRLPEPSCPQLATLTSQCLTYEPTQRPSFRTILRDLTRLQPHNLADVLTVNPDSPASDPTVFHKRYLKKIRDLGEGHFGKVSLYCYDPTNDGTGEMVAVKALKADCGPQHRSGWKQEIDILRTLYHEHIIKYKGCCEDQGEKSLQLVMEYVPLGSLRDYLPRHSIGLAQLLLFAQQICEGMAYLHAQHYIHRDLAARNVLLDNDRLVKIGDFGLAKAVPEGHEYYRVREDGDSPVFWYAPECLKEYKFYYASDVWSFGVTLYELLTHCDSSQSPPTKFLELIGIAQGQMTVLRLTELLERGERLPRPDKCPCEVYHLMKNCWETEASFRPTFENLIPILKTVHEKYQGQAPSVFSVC
Protocol: as §1

COc1cc(-c2cc(-c3ccc(N4CCNCC4)cc3)cnc2C)cc(OC)c1OC [Compound 10, 1-(4-(6-methyl-5-(3,4,5-trimethoxyphenyl)pyridin-3-yl)phenyl)piperazine]
pIC50 (caALK4): 5.26 | inhibition at 0.1 µM (DDR2): -1% | inhibition at 1 µM (DDR2): 20% | inhibition at 0.1 µM (CSK): 4% | inhibition at 1 µM (CSK): 5% | inhibition at 0.1 µM (MEK1): 0% | inhibition at 1 µM (MEK1): 2% | inhibition at 0.1 µM (MKNK1): 3% | inhibition at 1 µM (MKNK1): 5% | inhibition at 0.1 µM (PIM-2): 0% | inhibition at 1 µM (PIM-2): 0% | inhibition at 0.1 µM (TYK2): 2% | inhibition at 1 µM (TYK2): 1%

COc1cc(-c2cc(-c3ccc(N4CCNCC4)cc3)cnc2N)cc(OC)c1OC [Compound 15, 5-(4-(piperazin-1-yl)phenyl)-3-(3,4,5-trimethoxyphenyl)pyridin-2-amine]
pIC50 (caALK4): 7.60 | inhibition at 0.1 µM (DDR2): 32% | inhibition at 1 µM (DDR2): 86% | inhibition at 0.1 µM (CSK): 10% | inhibition at 1 µM (CSK): 36% | inhibition at 0.1 µM (MEK1): 3% | inhibition at 1 µM (MEK1): 6% | inhibition at 0.1 µM (MKNK1): 3% | inhibition at 1 µM (MKNK1): 5% | inhibition at 0.1 µM (PIM-2): 0% | inhibition at 1 µM (PIM-2): 0% | inhibition at 0.1 µM (TYK2): 0% | inhibition at 1 µM (TYK2): 0%
